Data on one compound can be found in patent US20040077615A1, “Novel formulations for administering therapeutic lipophilic molecules” (priority 2000, published 2004).

For the data set the following is noted: subcutaneous 5 mg in sesame oil vs rectal 15 mg (Diastat); plasma over 8 hours; FIG. 1.

Regarding `CN1C(=O)CN=C(c2ccccc2)c2cc(Cl)ccc21` [diazepam], the “rise of levels in blood, subcutaneous delivery compared with rectal delivery” value is “rise more quickly than via rectal delivery”.
